Assay results reported in PubChem BioAssay (NCI).
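Growth conditions: 96-well plates. Treatment: test compound, 48 hours, 5 concentrations. Analysis: linear interpolation between bracketing concentrations; unreached endpoints set to highest concentration. GI50: concentration for 50% inhibition of growth. TGI: total growth inhibition.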

Assays:
Experiment in all cases: DTP human tumour cell line panel, 48 h
IGROV1 ovarian = tested on: IGROV1 ovarian
RXF 393 renal = tested on: RXF 393 renal
TK-10 renal = tested on: TK-10 renal
SF-539 CNS = tested on: SF-539 CNS
T-47D breast = tested on: T-47D breast
NCI-H460 lung = tested on: NCI-H460 lung
MDA-MB-231 breast = tested on: MDA-MB-231 breast
SF-268 CNS = tested on: SF-268 CNS
HCC-2998 colon = tested on: HCC-2998 colon
BT-549 breast = tested on: BT-549 breast
HCT-116 colon = tested on: HCT-116 colon
DU-145 prostate = tested on: DU-145 prostate
SK-MEL-5 melanoma = tested on: SK-MEL-5 melanoma
CCRF-CEM leukemia = tested on: CCRF-CEM leukemia
M14 melanoma = tested on: M14 melanoma
SK-MEL-28 melanoma = tested on: SK-MEL-28 melanoma
U251 CNS = tested on: U251 CNS
NCI-H522 lung = tested on: NCI-H522 lung
LOX IMVI melanoma = tested on: LOX IMVI melanoma
ACHN renal = tested on: ACHN renal
A498 renal = tested on: A498 renal
SF-295 CNS = tested on: SF-295 CNS
OVCAR-4 ovarian = tested on: OVCAR-4 ovarian
HOP-62 NSCLC = tested on: HOP-62 NSCLC
RPMI-8226 leukemia = tested on: RPMI-8226 leukemia
KM12 colon = tested on: KM12 colon
COLO 205 colon = tested on: COLO 205 colon
PC-3 prostate = tested on: PC-3 prostate
HOP-92 NSCLC = tested on: HOP-92 NSCLC
HT29 colon = tested on: HT29 colon
SN12C renal = tested on: SN12C renal
SK-MEL-2 melanoma = tested on: SK-MEL-2 melanoma
MCF7 breast = tested on: MCF7 breast
MDA-MB-435 = tested on: MDA-MB-435
HS 578T breast = tested on: HS 578T breast
NCI/ADR-RES ovarian = tested on: NCI/ADR-RES ovarian
OVCAR-5 ovarian = tested on: OVCAR-5 ovarian
SR leukemia = tested on: SR leukemia
K-562 leukemia = tested on: K-562 leukemia
OVCAR-8 ovarian = tested on: OVCAR-8 ovarian
UO-31 renal = tested on: UO-31 renal
EKVX NSCLC = tested on: EKVX NSCLC
OVCAR-3 ovarian = tested on: OVCAR-3 ovarian
SW-620 colon = tested on: SW-620 colon
UACC-257 melanoma = tested on: UACC-257 melanoma
CAKI-1 renal = tested on: CAKI-1 renal
SNB-19 CNS = tested on: SNB-19 CNS
SK-OV-3 ovarian = tested on: SK-OV-3 ovarian
MOLT-4 leukemia = tested on: MOLT-4 leukemia
786-0 renal = tested on: 786-0 renal
UACC-62 melanoma = tested on: UACC-62 melanoma
A549 NSCLC = tested on: A549 NSCLC
HCT-15 colon = tested on: HCT-15 colon
MALME-3M melanoma = tested on: MALME-3M melanoma
NCI-H226 lung = tested on: NCI-H226 lung
NCI-H23 lung = tested on: NCI-H23 lung
HL-60(TB) leukemia = tested on: HL-60(TB) leukemia

CSC(=NC#N)S/C=C/C(=O)c1cccc2ccccc12 gave a GI50 (IGROV1 ovarian) of 21 µM, a TGI (IGROV1 ovarian) of 48.1 µM and a GI50 (RXF 393 renal) of 32.3 µM. The TGI (RXF 393 renal) was greater than 100 µM, the GI50 (TK-10 renal) was 22.2 µM and the TGI (TK-10 renal) was 45.4 µM. The GI50 (SF-539 CNS) was 17.6 µM, the TGI (SF-539 CNS) was 68.2 µM and the GI50 (T-47D breast) was 8.59 µM. The TGI (T-47D breast) was greater than 100 µM, the GI50 (NCI-H460 lung) was 37.8 µM and the TGI (NCI-H460 lung) was greater than 100 µM. The GI50 (MDA-MB-231 breast) was 26.2 µM, the TGI (MDA-MB-231 breast) was 75.4 µM and the GI50 (SF-268 CNS) was 36.6 µM. For the same compound, the TGI (SF-268 CNS) was greater than 100 µM, the GI50 (HCC-2998 colon) was 63 µM and the TGI (HCC-2998 colon) was greater than 100 µM. It also gave a GI50 (BT-549 breast) of 20.1 µM, a TGI (BT-549 breast) of 56 µM and a GI50 (HCT-116 colon) of 40 µM. The TGI (HCT-116 colon) was greater than 100 µM, the GI50 (DU-145 prostate) was 39.1 µM and the TGI (DU-145 prostate) was greater than 100 µM. For the same compound, the GI50 (SK-MEL-5 melanoma) was 23.1 µM, the TGI (SK-MEL-5 melanoma) was 55.4 µM and the GI50 (CCRF-CEM leukemia) was 27.1 µM. The TGI (CCRF-CEM leukemia) was greater than 100 µM, the GI50 (M14 melanoma) was 29.9 µM and the TGI (M14 melanoma) was greater than 100 µM. For the same compound, the GI50 (SK-MEL-28 melanoma) was 28.7 µM, the TGI (SK-MEL-28 melanoma) was 73.4 µM and the GI50 (U251 CNS) was 31.3 µM. It also gave a TGI (U251 CNS) greater than 100 µM, a GI50 (NCI-H522 lung) of 28.5 µM and a TGI (NCI-H522 lung) of 81.4 µM. For the same compound, the GI50 (LOX IMVI melanoma) was 20.5 µM, the TGI (LOX IMVI melanoma) was greater than 100 µM and the GI50 (ACHN renal) was 28.3 µM. For the same compound, the TGI (ACHN renal) was 82 µM, the GI50 (A498 renal) was 40.2 µM and the TGI (A498 renal) was greater than 100 µM. For the same compound, the GI50 (SF-295 CNS) was greater than 100 µM, the TGI (SF-295 CNS) was greater than 100 µM and the GI50 (OVCAR-4 ovarian) was 47.9 µM. It also gave a TGI (OVCAR-4 ovarian) greater than 100 µM, a GI50 (HOP-62 NSCLC) of 34 µM and a TGI (HOP-62 NSCLC) of 61.2 µM. It also gave a GI50 (RPMI-8226 leukemia) of 25 µM, a TGI (RPMI-8226 leukemia) greater than 100 µM and a GI50 (KM12 colon) of 29.1 µM. For the same compound, the TGI (KM12 colon) was greater than 100 µM, the GI50 (COLO 205 colon) was 34.3 µM and the TGI (COLO 205 colon) was greater than 100 µM. It also gave a GI50 (PC-3 prostate) of 31.3 µM, a TGI (PC-3 prostate) of 99 µM and a GI50 (HOP-92 NSCLC) of 19.3 µM. The TGI (HOP-92 NSCLC) was 66.6 µM, the GI50 (HT29 colon) was 53.9 µM and the TGI (HT29 colon) was greater than 100 µM. The GI50 (SN12C renal) was 31.1 µM, the TGI (SN12C renal) was greater than 100 µM and the GI50 (SK-MEL-2 melanoma) was 34.3 µM. For the same compound, the TGI (SK-MEL-2 melanoma) was greater than 100 µM, the GI50 (MCF7 breast) was 30.9 µM and the TGI (MCF7 breast) was greater than 100 µM. For the same compound, the GI50 (MDA-MB-435) was 24.5 µM, the TGI (MDA-MB-435) was 85.5 µM and the GI50 (HS 578T breast) was 40.4 µM. The TGI (HS 578T breast) was greater than 100 µM, the GI50 (NCI/ADR-RES ovarian) was 40.8 µM and the TGI (NCI/ADR-RES ovarian) was greater than 100 µM. The GI50 (OVCAR-5 ovarian) was 28.3 µM, the TGI (OVCAR-5 ovarian) was 82.9 µM and the GI50 (SR leukemia) was 4.71 µM. For the same compound, the TGI (SR leukemia) was greater than 100 µM, the GI50 (K-562 leukemia) was 29.2 µM and the TGI (K-562 leukemia) was greater than 100 µM. For the same compound, the GI50 (OVCAR-8 ovarian) was 31.9 µM, the TGI (OVCAR-8 ovarian) was greater than 100 µM and the GI50 (UO-31 renal) was 26 µM. For the same compound, the TGI (UO-31 renal) was 73.5 µM, the GI50 (EKVX NSCLC) was 26.4 µM and the TGI (EKVX NSCLC) was greater than 100 µM. It also gave a GI50 (OVCAR-3 ovarian) of 18 µM, a TGI (OVCAR-3 ovarian) of 48.2 µM and a GI50 (SW-620 colon) of 36.9 µM. The TGI (SW-620 colon) was greater than 100 µM, the GI50 (UACC-257 melanoma) was 21.3 µM and the TGI (UACC-257 melanoma) was 47.2 µM. For the same compound, the GI50 (CAKI-1 renal) was 14.7 µM, the TGI (CAKI-1 renal) was 33.9 µM and the GI50 (SNB-19 CNS) was 43 µM. The TGI (SNB-19 CNS) was greater than 100 µM, the GI50 (SK-OV-3 ovarian) was 61.1 µM and the TGI (SK-OV-3 ovarian) was greater than 100 µM. For the same compound, the GI50 (MOLT-4 leukemia) was 8.46 µM, the TGI (MOLT-4 leukemia) was greater than 100 µM and the GI50 (786-0 renal) was 16.2 µM. It also gave a TGI (786-0 renal) of 43.5 µM, a GI50 (UACC-62 melanoma) of 27.7 µM and a TGI (UACC-62 melanoma) greater than 100 µM. For the same compound, the GI50 (A549 NSCLC) was 29.3 µM, the TGI (A549 NSCLC) was greater than 100 µM and the GI50 (HCT-15 colon) was 27.4 µM. For the same compound, the TGI (HCT-15 colon) was greater than 100 µM, the GI50 (MALME-3M melanoma) was 15.8 µM and the TGI (MALME-3M melanoma) was 38.6 µM.

COc1ccc(OC)c([N+](=O)[O-])c1-c1nc2sc(C)c(C)n2c1/C=N/N=C(N)N showed a TGI (IGROV1 ovarian) greater than 100 µM, a TGI (RXF 393 renal) greater than 100 µM and a TGI (TK-10 renal) greater than 100 µM. It also gave a TGI (SF-539 CNS) greater than 100 µM, a TGI (T-47D breast) of 61.2 µM and a TGI (NCI-H460 lung) greater than 100 µM. For the same compound, the TGI (MDA-MB-231 breast) was greater than 100 µM, the TGI (SF-268 CNS) was greater than 100 µM and the TGI (HCC-2998 colon) was greater than 100 µM. The TGI (BT-549 breast) was 57.7 µM, the TGI (NCI-H226 lung) was greater than 100 µM and the TGI (HCT-116 colon) was greater than 100 µM. The TGI (DU-145 prostate) was greater than 100 µM, the TGI (SK-MEL-5 melanoma) was greater than 100 µM and the TGI (CCRF-CEM leukemia) was greater than 100 µM. It also gave a TGI (M14 melanoma) greater than 100 µM, a TGI (SK-MEL-28 melanoma) greater than 100 µM and a TGI (U251 CNS) greater than 100 µM. It also gave a TGI (NCI-H522 lung) greater than 100 µM, a TGI (LOX IMVI melanoma) greater than 100 µM and a TGI (ACHN renal) greater than 100 µM. It also gave a TGI (A498 renal) greater than 100 µM, a TGI (SF-295 CNS) greater than 100 µM and a TGI (OVCAR-4 ovarian) greater than 100 µM. The TGI (HOP-62 NSCLC) was greater than 100 µM, the TGI (RPMI-8226 leukemia) was 89.9 µM and the TGI (KM12 colon) was 50.9 µM. It also gave a TGI (COLO 205 colon) greater than 100 µM, a TGI (NCI-H23 lung) greater than 100 µM and a TGI (PC-3 prostate) greater than 100 µM. It also gave a TGI (HOP-92 NSCLC) greater than 100 µM, a TGI (HT29 colon) greater than 100 µM and a TGI (SN12C renal) greater than 100 µM. It also gave a TGI (SK-MEL-2 melanoma) of 40.5 µM, a TGI (MCF7 breast) of 79.5 µM and a TGI (MDA-MB-435) greater than 100 µM. For the same compound, the TGI (HS 578T breast) was greater than 100 µM, the TGI (NCI/ADR-RES ovarian) was greater than 100 µM and the TGI (OVCAR-5 ovarian) was greater than 100 µM. For the same compound, the TGI (SR leukemia) was greater than 100 µM, the TGI (K-562 leukemia) was greater than 100 µM and the TGI (OVCAR-8 ovarian) was greater than 100 µM. It also gave a TGI (UO-31 renal) greater than 100 µM, a TGI (EKVX NSCLC) greater than 100 µM and a TGI (OVCAR-3 ovarian) greater than 100 µM. The TGI (HL-60(TB) leukemia) was 64.9 µM, the TGI (SW-620 colon) was greater than 100 µM and the TGI (UACC-257 melanoma) was greater than 100 µM. It also gave a TGI (CAKI-1 renal) greater than 100 µM, a TGI (SNB-19 CNS) greater than 100 µM and a TGI (MOLT-4 leukemia) of 40.4 µM. It also gave a TGI (786-0 renal) greater than 100 µM, a TGI (UACC-62 melanoma) greater than 100 µM and a TGI (A549 NSCLC) greater than 100 µM. The TGI (HCT-15 colon) was greater than 100 µM and the TGI (MALME-3M melanoma) was greater than 100 µM.
